Test results reported in PubChem BioAssay (NCI).
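Briefly, cells in 96-well plates were exposed to five compound concentrations for 48 h, and endpoints were estimated by linear interpolation. TGI: total growth inhibition.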

Assays:
Assay in all cases: NCI-60 cell line screen, 48 h
T-47D breast = tested on: T-47D breast
HCC-2998 colon = tested on: HCC-2998 colon
KM12 colon = tested on: KM12 colon
SN12C renal = tested on: SN12C renal
CAKI-1 renal = tested on: CAKI-1 renal
SF-539 CNS = tested on: SF-539 CNS
OVCAR-3 ovarian = tested on: OVCAR-3 ovarian
A498 renal = tested on: A498 renal
786-0 renal = tested on: 786-0 renal
HOP-62 NSCLC = tested on: HOP-62 NSCLC
U251 CNS = tested on: U251 CNS
ACHN renal = tested on: ACHN renal
SF-268 CNS = tested on: SF-268 CNS
UACC-257 melanoma = tested on: UACC-257 melanoma
NCI-H522 lung = tested on: NCI-H522 lung
HS 578T breast = tested on: HS 578T breast
UO-31 renal = tested on: UO-31 renal

| Structure (SMILES) | TGI (T-47D breast) [µM] | TGI (HCC-2998 colon) [µM] | TGI (KM12 colon) [µM] | TGI (SN12C renal) [µM] | TGI (CAKI-1 renal) [µM] | TGI (SF-539 CNS) [µM] | TGI (OVCAR-3 ovarian) [µM] | TGI (A498 renal) [µM] | TGI (786-0 renal) [µM] | TGI (HOP-62 NSCLC) [µM] | TGI (U251 CNS) [µM] | TGI (ACHN renal) [µM] | TGI (SF-268 CNS) [µM] | TGI (UACC-257 melanoma) [µM] | TGI (NCI-H522 lung) [µM] | TGI (HS 578T breast) [µM] | TGI (UO-31 renal) [µM] |
| --- | --- | --- | --- | --- | --- | --- | --- | --- | --- | --- | --- | --- | --- | --- | --- | --- | --- |
| Cc1ccc(/C=C/C(=N/NC(=O)N/N=C(/C=C/c2ccc(C)cc2)C(C)(C)CN2CCCCC2)C(C)(C)CN2CCCCC2)cc1 | 4.02 | 3.21 | 3.01 | 3.27 | 5.56 | 3.24 | 3.07 | 3.12 | 2.68 | 3.08 | 2.82 | 4.23 | 4.64 | 3.1 | 3.04 | 3.29 | 2.28 |
| O=C(O)c1ccccc1/C=N/NC1=NCCCCN1 | > 100 | > 100 | > 100 |  |  | > 100 | > 100 | > 100 | > 100 | > 100 | > 100 | > 100 | > 100 | > 100 | > 100 | > 100 | > 100 |
| CN1CCC23c4c5ccc(O)c4OC2c2[nH]c4ccccc4c2CC3(O)C1C5 (configuration not stated) | 46.9 | 32 | > 100 | > 100 | > 100 |  | > 100 | 38 | 39.6 | > 100 | 52.9 | 65.1 | > 100 | 36.8 | > 100 | 70.9 | 30.9 |
| CCS(=O)(=O)CCn1cnc2c1c(=O)n(C)c(=O)n2C | > 100 | > 100 | > 100 | > 100 | > 100 | > 100 | > 100 | > 100 | > 100 | > 100 | > 100 | > 100 | > 100 | > 100 | > 100 | > 100 | > 100 |
| C=CC[C@@H]1C(=O)[C@@]2(O[Si](C(C)C)(C(C)C)C(C)C)CC[C@@H]1C[C@H]2NC(=O)OCC(Cl)(Cl)Cl | > 100 | > 100 | > 100 | > 100 | > 100 |  | > 100 | > 100 | > 100 | > 100 | > 100 | > 100 | > 100 | > 100 | 0.0356 | > 100 | > 100 |
| C=CC[C@@]1(C)CCCCCCCCC[C@@](C)(CC=C)C1=O | 60.9 | 35 | 94.5 | 76.8 | > 100 | > 100 | 38.1 | 36.4 | > 100 | > 100 | 33 | > 100 | > 100 | 58.6 | 59.4 | 42.9 | > 100 |
| CCc1c(Cc2cc(C)cc(C)c2)n2c(nc1=O)SCC2CBr (configuration not stated) | > 50 | > 50 | > 50 | > 50 | > 50 | > 50 |  | > 50 | > 50 |  | > 50 | > 50 | > 50 | > 50 | > 50 | > 50 | > 50 |
| Cc1c(C)c2c(c(N)c1C#N)C(=O)N(CCN1CCNCC1)C2=O | > 100 | > 100 | > 100 | > 100 | > 100 | > 100 | > 100 | 72.3 | > 100 |  | > 100 | > 100 | > 100 | > 100 | 97.3 | > 100 | 90.9 |
| CCOC(=O)/C=C(/C(=O)OCC)n1ccc(=O)n(/C(=C/C(=O)OCC)C(=O)OCC)c1=O | 15.9 | 35 | 33.9 | 17.9 | 3.23 | 34.2 | 16.9 | 38.8 | 5.86 | 46.9 | 29.4 | 8.06 | 43.9 | 24.5 | 3.53 | 45.5 | 28.9 |
| CC1(C)CC(=O)c2c(nc(SSc3nc4c(c(-c5ccccc5)c3C#N)C(=O)CC(C)(C)C4)c(C#N)c2-c2ccccc2)C1 | > 10 | > 10 | > 10 | > 10 | > 10 | > 10 | > 10 | > 10 | > 10 | > 10 | > 10 | > 10 | > 10 | > 10 | > 10 | > 10 | > 10 |
| O=C1NC(N2CCCC(CO)C2)=N/C1=C\c1ccc(Cl)cc1 (configuration not stated) | > 100 | > 100 | > 100 | > 100 | > 100 | > 100 | > 100 |  | > 100 | > 100 | > 100 | > 100 | > 100 | > 100 | > 100 | > 100 | > 100 |
| COc1cc(/C=C/c2cc(/C=C/c3ccc(O)c(OC)c3)oc(=O)c2)ccc1O | 4.86 |  | 18 | > 71.4 | 16.1 | > 100 | 5.68 | 13.6 | 34.9 | 27.2 | > 51.8 | 15.4 | > 39.7 | > 29.6 | > 23.9 | > 85.3 | > 100 |
| COc1c(O)c2c(=O)cc(OC)c3c4c(OC)cc(=O)c5c(O)c(OC)c6c(c(c1C(C(C)=O)C6C(C)O)c23)c54 (configuration not stated) | 1.64 | 1.06 | 1.07 | 2.94 |  | 1.87 | 0.442 | 28.3 | 3.81 | 0.632 | 0.603 | 1.09 | 3.92 | 1.39 | 0.634 | 1.81 | 1.03 |
| C[C@]12[C@@H]3CC[C@H]1[C@@H](OC(=O)Nc1cc([N+](=O)[O-])cc([N+](=O)[O-])c1)C(=O)N2CC3 | > 100 | > 100 | > 100 | > 100 | > 100 |  |  | > 100 | > 100 | > 100 | > 100 | > 100 | > 100 | > 100 | > 100 | > 100 | > 100 |
| CCOC(=O)c1cnc(-n2[nH]c3c(c2=O)CCCC3)[nH]c1=O | > 100 |  | > 100 | > 100 | > 100 | > 100 |  | > 100 | > 100 |  | > 100 | > 100 | > 100 | > 100 | > 100 | > 100 | > 100 |
| NNc1[nH]c(=S)[nH]c1C(N)=O | > 100 | > 100 | > 100 | > 100 |  | > 100 | > 100 | > 100 | > 100 | > 100 | > 100 |  | > 100 | > 100 | > 100 | > 100 | > 100 |
| Cc1cn(C2CC(N)C(C(=O)O)O2)c(=O)[nH]c1=O (configuration not stated) |  | > 100 | > 100 | > 100 | > 100 | > 100 | > 100 | > 100 | > 100 | > 100 | > 100 | > 100 | > 100 | > 100 | > 100 | > 100 | > 100 |
| COc1cccc(C2C3=C(COC3=O)Oc3cc4c(cc32)OCO4)c1 (configuration not stated) |  | 1.88 | 6.43 | > 100 | > 100 | 0.0667 | 0.43 | 1.27 | > 66.4 | > 14 | > 100 | > 53.1 | > 62.6 | > 100 | 0.0596 | > 100 | > 100 |
| NC(N)=NCCCC(NC(=O)OCCCCCCn1ccc(N)nc1=O)C(=O)O (configuration not stated) | > 100 | > 100 | > 100 | > 100 | > 100 | > 100 | > 100 | > 100 | > 100 | > 100 | > 100 | > 100 | > 100 | > 100 |  | > 100 | > 100 |
| O=c1[nH]n(Cc2ccccn2)c2ccc([N+](=O)[O-])cc12 |  | > 100 | > 100 | > 100 | > 100 | > 100 | > 100 | > 100 | > 100 | > 100 | > 100 | > 100 | > 100 | > 100 | > 100 | > 100 | > 100 |
| Cc1ccc(S(=O)(=O)N2CCCC2C(=O)O[C@H]2CC[C@H]3CC=C[C@H]32)cc1 (some centres not stated) | > 100 | > 100 | > 100 | > 100 | > 100 |  | > 100 | 89 | > 31.6 | > 100 | > 100 | > 31.6 | > 100 | 67.4 |  | > 100 | > 100 |
| Cc1c(C)c(S(=O)(=O)N(CCCN)OCCCN)c(C)c2c1OC(C)(C)C2 | > 100 | 40.9 | 38.9 | > 100 | > 100 |  | > 100 | 42 | 68 | > 100 | 38.3 | > 100 | > 100 | 89.3 | 30.6 | 40.3 | > 100 |
| Cc1c2c(n(CCN(C)C)c1C)NN=C(C#N)S2(=O)=O | > 100 | > 100 | > 100 | > 100 |  | > 100 | > 100 |  | > 100 | > 100 | > 100 | > 100 | > 100 | > 100 |  | > 100 | > 100 |
| N#CC(Cc1ccccc1Br)N(CCC1=CCCCC1)C(c1ccccc1)c1ccccc1 (configuration not stated) | > 100 | > 100 | > 100 |  | > 100 |  | > 100 | > 100 | > 100 | > 100 | > 100 | > 100 | > 100 | > 100 | 87 | > 100 | > 100 |
| Clc1nc2n(c1/C=C/c1cccs1)CCS2 | 69.3 | > 100 | > 100 | > 100 | 55.2 |  | 87.9 | 57.9 | 95.5 | > 100 | > 100 | > 100 | > 100 | > 100 | > 100 | > 100 | > 100 |
| Cc1ccsc1/C=N/Nc1nncc2ccccc12 | > 100 | > 100 | > 100 | > 100 | > 100 |  | > 100 | > 100 | > 100 | > 100 | > 100 | > 100 | > 100 | > 100 |  | > 100 | > 100 |
| Nc1nc(Cl)c2nnn(CC3CCC(CO)C3)c2n1 (configuration not stated) | > 100 | > 100 | > 100 | > 100 | > 100 | > 100 | > 100 | > 100 | > 100 | > 100 | > 100 | > 100 | > 100 | > 100 |  | > 100 | > 100 |
| CC#CCCN(CC#N)Cc1ccccc1 | > 100 | > 100 | > 100 | > 100 | > 100 |  |  | 37.2 | > 100 | > 100 | > 100 | 48 | > 100 | > 100 | > 100 | > 100 | > 100 |
| O=C(Nc1ccccc1F)c1cc2ccc(O)cc2oc1=Nc1cccc(C(F)(F)F)c1 | 15.8 | > 100 | 26.8 |  | 19.7 | 22.3 | > 100 | 38.3 | 17.8 | 53.7 | 19.3 | 19.4 | 13.2 | > 100 | 18.7 | 7.75 | 15.5 |
